Experimental data as given in US12629365B2, “Pharmaceutical compositions of 5-HT6 receptor antagonist” (SUVEN LIFE SCIENCES LIMITED, priority 2016, dated 2026).

Experiment: BCS classification
Assay type: physicochemical
Settings: based on our experimental results

BCS classification: class I
Compound: COc1ccc2c(c1)c(CN1CCN(C)CC1)cn2S(=O)(=O)c1ccccc1Br [Compound 1, 1-[(2-Bromophenyl)sulfonyl]-5-methoxy-3-[(4-methyl-1-piperazinyl)methyl]-1H-indole dimesylate monohydrate]
